Measurements as given in patent publication US4029671A, “3-[(5-nitro-2-imidazolyl)pyrazol-5-yl]oxamic acid derivatives” (priority 1976, dated 1977).
≈ marks a conversion by molar mass, not a printed value. Structures can show the parent of a compound that is named as a salt.

Columns and labels:
Test in all cases: Agar dilution susceptibility of anaerobic bacteria (Chart 1)
Type in all cases: cell-based
[1] = system: Bacteroides fragilis sp. fragilis 1874; conditions: agar dilution, 37° C., Bacteroides fragilis sp. fragilis 1874; for MIC: Bacteroides fragilis, 24 h, read-out: 24 Hr. MIC
[2] = system: Bacteroides fragilis sp. fragilis 106; conditions: agar dilution, 37° C., Bacteroides fragilis sp. fragilis 106; for MIC: Bacteroides fragilis, 24 h, read-out: 24 Hr. MIC
[3] = system: Bacteroides fragilis sp. fragilis 108; conditions: agar dilution, 37° C., Bacteroides fragilis sp. fragilis 108; for MIC: Bacteroides fragilis, 24 h, read-out: 24 Hr. MIC
[4] = system: Bacteroides corrodens 1874; conditions: agar dilution, 37° C., Bacteroides corrodens 1874; for MIC: Eikenella corrodens, 1874, 24 h, read-out: 24 Hr. MIC
[5] = system: Bacteroides fragilis sp. thetaiotaomicron 1900A; conditions: agar dilution, 37° C., Bacteroides fragilis sp. thetaiotaomicron 1900A; for MIC: Bacteroides fragilis, 24 h, read-out: 24 Hr. MIC
[6] = system: Bacteroides fragilis sp. fragilis 107; conditions: Bacteroides fragilis, 24 h, agar dilution, 37° C.; Bacteroides fragilis sp. fragilis 107; read-out: 24 Hr. MIC
[7] = system: Bacteroides fragilis sp. fragilis 112; conditions: agar dilution, 37° C., Bacteroides fragilis sp. fragilis 112; for MIC: Bacteroides fragilis, 24 h, read-out: 24 Hr. MIC
[8] = system: Bacteroides fragilis sp. fragilis 104; conditions: 24 h; agar dilution, 37° C.; Bacteroides fragilis sp. fragilis 104; read-out: 24 Hr. MIC
[9] = system: Eubacterium aerofaciens 1235; conditions: agar dilution, 37° C., Eubacterium aerofaciens 1235; for MIC: Collinsella aerofaciens, 1235, 24 h, read-out: 24 Hr. MIC
[10] = system: Bacteroides fragilis sp. fragilis 2; conditions: Bacteroides fragilis, 24 h, agar dilution, 37° C.; Bacteroides fragilis sp. fragilis 2; read-out: 24 Hr. MIC
[11] = system: Bacteroides fragilis sp. fragilis 1936B; conditions: agar dilution, 37° C., Bacteroides fragilis sp. fragilis 1936B; for MIC: Bacteroides fragilis, 24 h, read-out: 24 Hr. MIC
[12] = system: Bacteroides fragilis sp. fragilis 113; conditions: agar dilution, 37° C., Bacteroides fragilis sp. fragilis 113; for MIC: Bacteroides fragilis, 24 h, read-out: 24 Hr. MIC
[13] = system: Clostridium septicum 1128; conditions: 37° C.; for MIC: Clostridium septicum, 1128, 24 h
Method: The susceptibility of anaerobic bacteria, both gram positive and gram negative, to a representative number of the novel compounds of this application was determined using the agar dilution method. The bacteria used were isolated from patients hospitalized at the Indiana Univerisity Medical Center. The isolates were identified in the anaerobe laboratory of the Medical Center by the criteria established by Dowell et al., Laboratory Methods in Anaerobic Bacteriology. Public Health Serv. Publ. NO. 1803 (1968) [Center for Disease Control, Atlanta, Ga.]; and by Smith et al., The Pathogenic Anaerobic Bacteria, pages 96- 136 (1968) [Charles C. Thomas, Publisher, Springfield, Ill.]. All the organisms were maintained in chopped meat glucose medium (Scott Labs) at room temperature.
The method used for the agar dilution tests was based on the studies of Sutter et al., Antimicrob. Ag. Chemother. 3, 188-193 (1973). The strains of anaerobic bacteria were grown in 16×× 120 mm. tubes for 16 to 18 hours in Thioglycolate medium without indicator-- 135C (Becton, Dickinson and Co.), to which was added 5 mcg. of hemin per milliliter prior to autoclaving, plus 1 mg. of sodium bicarbonate and 0.1 mcg. of filter-sterilized menadione per milliliter after autoclaving. The strains were adjusted to the turbidity of the No. 1 McFarland standard in Thioglycolate medium without indicator-- 135C containing an additional 0.13 percent Bacto-agar (Difco). Each strain was then applied to the surface of the petri plate (100 mm× 15 mm.) by means of a replicator.
For the agar dilution studies, two-fold dilutions of the test compounds were prepared in deionized water to which was then added laked sheep blood and filter-sterilized menadione so the concentrations after the agar dilution were 5 percent and 10 mcg./ml. respectively. An equal volume of double strength Brucella agar (Becton, Dickinson and Co.) was mixed with each dilution in a water bath held at 50° C. and then poured onto the petri dishes.
All of the procedures were done inside a plastic glove box, except for the incubation of the growth tubes and the pouring of the plates. After the plates hardened, they were put inside the glove box for a minimum of 2 hours before they were inoculated. Generally, the glove box procedures of Aranki et al., Applied Microbiology 17, 568-576 (1969), were followed, but the following modifications were used. Dry materials were introduced into the glove box by evacuating the lock to 28 inches of mercury and filling once with nitrogen gas, followed by evacuating in the same manner and filling with an 80 percent nitrogen plus 10 percent CO2 plus 10 percent hydrogen gas mixture. Liquid media and agar plates were introduced into the glove box by evacuating the lock to 10 inches of mercury and filling with gas four times. The nitrogen gas was used to fill the lock for the first two cycles of evacuation, with the gas mixture described above used for the final two fillings.
All the plates were incubated at 37° C. in Gas Pak jars (Becton, Dickinson and Co.) containing palladium-coated alumina catalysts (reactivated after each use). The results of the agar dilution tests were read after about 24 hours of incubation. The minimum inhibitory concentration (MIC) was recorded as the lowest concentration of test compound at which there was no growth.
The test compounds are identified by the number of the example describing their preparation. The antibiotics clindamycin (C), and erythromycin (E) were also run simultaneously with the novel compounds of this application,for comparison purposes, and the results are included in Chart 1 below.

[14] = system: Bacteroides fragilis sp. fragilis 1877; conditions: agar dilution, 37° C., Bacteroides fragilis sp. fragilis 1877; for MIC: Bacteroides fragilis, 24 h, read-out: 24 Hr. MIC
[15] = system: Bacteroides melaninogenicus 2736; conditions: agar dilution, 37° C., Bacteroides melaninogenicus 2736; for MIC: 2736, 24 h, read-out: 24 Hr. MIC
[16] = system: Bacteroides fragilis sp. fragilis 103; conditions: agar dilution, 37° C., Bacteroides fragilis sp. fragilis 103; for MIC: Bacteroides fragilis, 24 h, read-out: 24 Hr. MIC

Structure (SMILES)	MIC [1]	MIC [2]	MIC [3]	MIC [4]	MIC [5]	MIC [6]	MIC [7]	MIC [8]	MIC [9]	MIC [10]	MIC [11]	MIC [12]	MIC [13]	MIC [14]	MIC [15]	MIC [16]	24 Hr. MIC [13]	24 Hr. MIC [4]	24 Hr. MIC [9]	24 Hr. MIC [11]	also measured
CCC[C@@H]1C[C@@H](C(=O)N[C@@H]([C@H]2O[C@H](SC)[C@H](O)[C@@H](O)[C@H]2O)[C@H](C)Cl)N(C)C1 [C, clindamycin, reference compound]	≤ 0.06 µg/mL	0.125 µg/mL (≈ 0.294 µM)	0.125 µg/mL (≈ 0.294 µM)	≤ 0.5 µg/mL	4 µg/mL (≈ 9.41 µM)	0.25 µg/mL (≈ 0.588 µM)	0.25 µg/mL (≈ 0.588 µM)	0.125 µg/mL (≈ 0.294 µM)	8 µg/mL (≈ 18.8 µM)	0.25 µg/mL (≈ 0.588 µM)	≤ 0.5 µg/mL	0.125 µg/mL (≈ 0.294 µM)	8 µg/mL (≈ 18.8 µM)	0.25 µg/mL (≈ 0.588 µM)	≤ 0.5 µg/mL	≤ 0.06 µg/mL					
CCOC(=O)C(=O)Nc1c(C#N)c(-c2ncc([N+](=O)[O-])n2C)nn1C [Example 1, N-[4-Cyano-1-methyl-3-(1-methyl-5-nitroimidazol-2-yl)pyrazol-5-yl]oxamic acid, ethyl ester]		0.125 µg/mL (≈ 0.36 µM)	0.125 µg/mL (≈ 0.36 µM)	≤ 0.25 µg/mL	0.25 µg/mL (≈ 0.72 µM)	0.25 µg/mL (≈ 0.72 µM)	0.125 µg/mL (≈ 0.36 µM)	0.25 µg/mL (≈ 0.72 µM)	0.5 µg/mL (≈ 1.44 µM)	0.25 µg/mL (≈ 0.72 µM)	≤ 0.25 µg/mL	0.25 µg/mL (≈ 0.72 µM)		0.25 µg/mL (≈ 0.72 µM)	≤ 0.25 µg/mL		> 128 µg/mL				24 Hr. MIC [1]: 0.06 µg/mL; 24 Hr. MIC [16]: ≤ 0.03 µg/mL
CCOC(=O)C(=O)Nc1c(C#N)c(-c2ncc([N+](=O)[O-])n2C)nn1C [Example 2, N-[4-Cyano-1-methyl-3-(1-methyl-5-nitroimidazol-2-yl)pyrazol-5-yl]oxamic acid, ethyl ester, sodium salt]																					24 Hr. MIC ([1]; sodium salt): 0.25 µg/mL; 24 Hr. MIC ([2]; sodium salt): 0.25 µg/mL; 24 Hr. MIC ([3]; sodium salt): 0.25 µg/mL; 24 Hr. MIC ([4]; sodium salt): ≤ 0.25 µg/mL; 24 Hr. MIC ([5]; sodium salt): 0.25 µg/mL; 24 Hr. MIC ([7]; sodium salt): 0.25 µg/mL; 24 Hr. MIC ([9]; sodium salt): ≤ 0.25 µg/mL; 24 Hr. MIC ([11]; sodium salt): ≤ 0.25 µg/mL; 24 Hr. MIC ([12]; sodium salt): 0.25 µg/mL; 24 Hr. MIC ([13]; sodium salt): > 64 µg/mL; 24 Hr. MIC ([14]; sodium salt): 0.5 µg/mL; 24 Hr. MIC ([15]; sodium salt): 0.5 µg/mL; 24 Hr. MIC ([16]; sodium salt): 0.125 µg/mL
Cn1nc(-c2ncc([N+](=O)[O-])n2C)c(C#N)c1NC(=O)C(=O)NN [Example 6, 5-[4-Cyano-1-methyl-3-(1-methyl-5-nitroimidazol-2-yl)pyrazol5-yl]semioxamazide]	0.25 µg/mL (≈ 0.75 µM)	0.25 µg/mL (≈ 0.75 µM)	0.5 µg/mL (≈ 1.5 µM)		0.25 µg/mL (≈ 0.75 µM)	0.5 µg/mL (≈ 1.5 µM)	0.5 µg/mL (≈ 1.5 µM)	0.25 µg/mL (≈ 0.75 µM)		0.25 µg/mL (≈ 0.75 µM)		0.25 µg/mL (≈ 0.75 µM)	> 128 µg/mL	0.5 µg/mL (≈ 1.5 µM)	≤ 0.25 µg/mL	0.06 µg/mL (≈ 0.18 µM)		≤ 0.25 µg/mL	0.5 µg/mL	≤ 0.25 µg/mL	
Cn1nc(-c2ncc([N+](=O)[O-])n2C)c(C#N)c1NC(=O)C(=O)c1ccccc1 [Example 10, N-[4-cyano-1-methyl-3-(1-methyl-5-nitroimidazol-2-yl)pyrazol-5-yl]-2-phenylglyoxylamide]	≤ 0.03 µg/mL	≤ 0.03 µg/mL	≤ 0.03 µg/mL			≤ 0.03 µg/mL	≤ 0.03 µg/mL	≤ 0.03 µg/mL		≤ 0.03 µg/mL				≤ 0.03 µg/mL		≤ 0.03 µg/mL	1.0 µg/mL	1.0 µg/mL	2 µg/mL	2 µg/mL	24 Hr. MIC [5]: ≤ 0.03 µg/mL; 24 Hr. MIC [12]: ≤ 0.03 µg/mL; 24 Hr. MIC [15]: 2 µg/mL
